The values below come from ChEMBL document CHEMBL4350972, “Design, synthesis and pharmacological evaluation of a novel mTOR-targeted anti-EV71 agent” (Eur J Med Chem, 2019).

Values after ≈ are worked out from the molar mass of the structure shown. Active and inactive are the calls of the source. No cut-off for these calls is given here.

Data set [1] can be described thus: Cytotoxicity against human RD cells incubated for 4 days by CellTiter-Glo luminescence assay. The class given is cell-based. Background: Cellular ATP, detected with luciferase, serves as a proxy for viable cell number.
Another data set concerns Enterovirus A71. Briefly: Antiviral activity against Enterovirus A71 infected in human RD cells assessed as reduction in virus-induced cell death incubated for 4 days by CellTiter-Glo luminescence assay. In kind it is functional, organism-based. The settings on record: Enterovirus A, 96 h.
A further data set has as its target mTORC1 (Homo sapiens) (UniProt P42345+Q8N122+Q9BVC4). The data set is described as follows: Inhibition of mTORC1 in human RD cells assessed as reduction in P70S6K1 phosphorylation at Thr 389 site at 20 uM incubated for 2 hrs in presence of insulin by Western blot analysis. In kind it is cell-based. For orientation: A western blot detects proteins with antibodies after separation by electrophoresis.

Another data set has as its target mTORC2 (Homo sapiens) (UniProt P42345+Q6R327+Q9BVC4+Q9BPZ7). The data set is described as follows: Inhibition of mTORC2 in human RD cells assessed as reduction in Akt phosphorylation at Ser473 site at 20 uM incubated for 2 hrs in presence of insulin by Western blot analysis. The class given is cell-based.
The nature of data set [2]: Ratio of aqueous solubility for Torin2 to aqueous solubility for test compound. In kind it is physicochemical. The note with it: buffer.
A short description of data set [3]: Aqueous solubility of the compound. In kind it is physicochemical.

A word on the CC50: it is the concentration that lowers cell viability or growth by half. A high value points to better tolerance by the cells. The IC50 is the concentration that inhibits the measured activity by half. `O=C(Nc1ccc(-c2ccc3ncc4ccc(=O)n(-c5cccc(C(F)(F)F)c5)c4c3c2)cn1)OCc1ccccc1` returned a CC50 at 96 h in data set [1] of 1000 nM. Moreover, in the data set with Enterovirus A71, the IC50 is 23700 nM. In addition, the inhibition entry on mTORC1 (Homo sapiens) and on mTORC2 (Homo sapiens) was “Active” each time.

Take `CC(C)(C)OC(=O)Nc1ccc(-c2ccc3ncc4ccc(=O)n(-c5cccc(C(F)(F)F)c5)c4c3c2)cn1`: in data set [1], the 50% cytotoxic concentration (CC50) at 96 h was 690 nM. Moreover, the IC50 in the data set on Enterovirus A71 is 2470 nM. The inhibition entry on mTORC1 (Homo sapiens) and on mTORC2 (Homo sapiens) was “Active” in each case.

On to `CN1CCN(c2ccc(-c3ccc4ncc5ccc(=O)n(-c6cccc(C(F)(F)F)c6)c5c4c3)cn2)CC1`, for which the half-maximal cytotoxic concentration (CC50) at 96 h in data set [1] was found to be 180 nM. Further, the Ratio in data set [2] was determined as 15. Further, in the data set on Enterovirus A71, the IC50 worked out at 90 nM. For the same compound, the inhibition entry on mTORC1 (Homo sapiens) is “Active”.

In data set [1], `CN(C)c1ccc(-c2ccc3ncc4ccc(=O)n(-c5cccc(C(F)(F)F)c5)c4c3c2)cn1` showed a cytotoxic concentration (CC50) at 96 h of 170 nM. In addition, the half-inhibitory concentration (IC50) in the data set with Enterovirus A71 turned out to be 270 nM. Also, the inhibition result at mTORC1 (Homo sapiens) and on mTORC2 (Homo sapiens) was “Active” each time.

Turning to `O=c1ccc2cnc3ccc(-c4ccc(N5CCCC5)nc4)cc3c2n1-c1cccc(C(F)(F)F)c1`, it took 1790 nM to reach half-maximal cytotoxicity in data set [1] (CC50 at 96 h). Besides, in the data set with Enterovirus A71, the half-maximal inhibitory concentration (IC50) amounted to 2470 nM. Further, the inhibition entry on mTORC1 (Homo sapiens) and on mTORC2 (Homo sapiens) was “Active” each time.

In data set [1], `O=C(Nc1ccc(-c2ccc3ncc4ccc(=O)n(-c5cccc(C(F)(F)F)c5)c4c3c2)cn1)Oc1ccccc1` returned a half-maximal cytotoxic concentration (CC50) at 96 h of 200 nM. Moreover, the concentration for half-maximal inhibition (IC50) in the data set on Enterovirus A71 worked out at 90 nM. The inhibition entry on mTORC1 (Homo sapiens) and at mTORC2 (Homo sapiens) was “Active” in each case.

In the case of `CO[C@H]1C[C@@H]2CC[C@@H](C)[C@@](O)(O2)C(=O)C(=O)N2CCCC[C@H]2C(=O)O[C@H]([C@H](C)C[C@@H]2CC[C@@H](O)[C@H](OC)C2)CC(=O)[C@H](C)/C=C(\C)[C@@H](O)[C@@H](OC)C(=O)[C@H](C)C[C@H](C)/C=C/C=C/C=C/1C`, the inhibition result at mTORC1 (Homo sapiens) is “Active”.

For the compound `COc1ccc(-c2ccc3ncc4ccc(=O)n(-c5cccc(C(F)(F)F)c5)c4c3c2)cn1`, half-maximal cytotoxicity in data set [1] (CC50 at 96 h) was put at 130 nM. The IC50 in the data set on Enterovirus A71 was found to be 40 nM. The inhibition result on mTORC1 (Homo sapiens) and at mTORC2 (Homo sapiens) was “Active” in each case.

With `COc1cncc(-c2ccc3ncc(/C=C/C(C)=O)c(Nc4cccc(C(F)(F)F)c4)c3c2)c1`, the half-maximal cytotoxic concentration (CC50) at 96 h in data set [1] was > 200000 nM.

Regarding `CC(=O)/C=C/c1cnc2ccc(-c3cccc(N)c3)cc2c1Nc1cccc(C(F)(F)F)c1`, the half-maximal cytotoxic concentration (CC50) at 96 h in data set [1] was > 200000 nM.

Turning to `CC(=O)/C=C/c1cnc2ccc(-c3ccc(F)nc3)cc2c1Nc1cccc(C(F)(F)F)c1`, it took 2230 nM to reach half-maximal cytotoxicity in data set [1] (CC50 at 96 h).

In data set [1], `Nc1cccc(Nc2ccc3ncc4ccc(=O)n(-c5cccc(C(F)(F)F)c5)c4c3c2)c1` returned a CC50 at 96 h of 7580 nM. Moreover, the half-inhibitory concentration (IC50) in the data set on Enterovirus A71 was 890 nM. The inhibition result at mTORC1 (Homo sapiens) and at mTORC2 (Homo sapiens) was “Active” in each case.

For the compound `O=c1ccc2cnc3ccc(-c4cccnc4F)cc3c2n1-c1cccc(C(F)(F)F)c1`, the half-maximal cytotoxic concentration (CC50) at 96 h in data set [1] is 1230 nM. Also, in data set [2], the Ratio is recorded as 5. The half-maximal inhibitory concentration (IC50) in the data set with Enterovirus A71 worked out at 59 nM. The inhibition result on mTORC1 (Homo sapiens) and at mTORC2 (Homo sapiens) was “Active” throughout.

`O=C1Cc2cc(-c3ccc4ncc5ccc(=O)n(-c6cccc(C(F)(F)F)c6)c5c4c3)ccc2N1` came in with a cytotoxic concentration (CC50) at 96 h in data set [1] of 10300 nM. For the same compound, in the data set on Enterovirus A71, the IC50 is 7400 nM. Also, the inhibition entry on mTORC1 (Homo sapiens) is “Active”.

The compound `CCCCC(=O)Nc1ccc(-c2ccc3ncc4ccc(=O)n(-c5cccc(C(F)(F)F)c5)c4c3c2)cn1` displayed a cytotoxic concentration (CC50) at 96 h in data set [1] of 700 nM. For the same compound, the IC50 in the data set on Enterovirus A71 worked out at 200 nM. In addition, the inhibition entry on mTORC1 (Homo sapiens) and on mTORC2 (Homo sapiens) was “Active” throughout.

In the case of `CCCC(=O)Nc1ccc(-c2ccc3ncc4ccc(=O)n(-c5cccc(C(F)(F)F)c5)c4c3c2)cn1`, in data set [1], it took 750 nM to reach half-maximal cytotoxicity (CC50 at 96 h). In addition, the IC50 with Enterovirus A71 amounted to 170 nM. Besides, the inhibition result on mTORC1 (Homo sapiens) and at mTORC2 (Homo sapiens) was “Active” in each case.

In data set [1], `CC(C)C(=O)Nc1ccc(-c2ccc3ncc4ccc(=O)n(-c5cccc(C(F)(F)F)c5)c4c3c2)cn1` had a CC50 at 96 h of 460 nM. In addition, in the data set on Enterovirus A71, the IC50 was found to be 820 nM. The inhibition result at mTORC1 (Homo sapiens) and on mTORC2 (Homo sapiens) was “Active” in each case.

In turn, `Cc1ccc(-c2ccc3ncc4oc(=O)n(-c5cccc(C(F)(F)F)c5)c4c3c2)cn1` gave a 50% cytotoxic concentration (CC50) at 96 h in data set [1] of 16900 nM. Further, the 50% inhibitory concentration (IC50) in the data set with Enterovirus A71 amounted to 4780 nM. The inhibition result on mTORC1 (Homo sapiens) and at mTORC2 (Homo sapiens) was “inactive” in each case.

Consider `N#C/C=C/c1ccc2ncc3oc(=O)n(-c4cccc(C(F)(F)F)c4)c3c2c1`, for which the CC50 at 96 h in data set [1] is > 200000 nM.

Consider `COC(=O)/C=C/c1ccc2ncc3oc(=O)n(-c4cccc(C(F)(F)F)c4)c3c2c1`, for which the CC50 at 96 h in data set [1] was determined as 72000 nM.

As to `CC(=O)/C=C/c1cnc2ccc(-c3cnc4ccccc4c3)cc2c1Nc1cccc(C(F)(F)F)c1`, the midpoint of cytotoxicity in data set [1], the CC50 at 96 h, lay at 680 nM.

The compound `NC(=O)NC/C=C/c1ccc2ncc3oc(=O)n(-c4cccc(C(F)(F)F)c4)c3c2c1` gave a CC50 at 96 h in data set [1] of 66600 nM. Besides, the IC50 in the data set on Enterovirus A71 turned out to be 48900 nM. In addition, the inhibition entry at mTORC1 (Homo sapiens) and at mTORC2 (Homo sapiens) was “inactive” each time.

In the case of `COc1ncccc1-c1ccc2ncc3ccc(=O)n(-c4cccc(C(F)(F)F)c4)c3c2c1`, the 50% cytotoxic concentration (CC50) at 96 h in data set [1] is > 200000 nM.

`O=c1oc2cnc3ccc(-c4cnc5ccccc5c4)cc3c2n1-c1cccc(C(F)(F)F)c1` came in with a CC50 at 96 h in data set [1] of 68900 nM.

`COc1cncc(-c2ccc3ncc4oc(=O)n(-c5cccc(C(F)(F)F)c5)c4c3c2)c1` gave a CC50 at 96 h in data set [1] of 68500 nM.

As to `CCC(=O)Nc1ccc(-c2ccc3ncc4ccc(=O)n(-c5cccc(C(F)(F)F)c5)c4c3c2)cn1`, the cytotoxic concentration (CC50) at 96 h in data set [1] came to 40 nM. In addition, the IC50 in the data set with Enterovirus A71 came to 27 nM. Moreover, the inhibition result at mTORC1 (Homo sapiens) and at mTORC2 (Homo sapiens) was “Active” throughout.

In the case of `CC(=O)/C=C/c1cnc2ccc(-c3ccc(N)cc3)cc2c1Nc1cccc(C(F)(F)F)c1`, the 50% cytotoxic concentration (CC50) at 96 h in data set [1] stood at 5140 nM. Moreover, the IC50 in the data set with Enterovirus A71 is 5140 nM. Further, the inhibition entry at mTORC1 (Homo sapiens) and at mTORC2 (Homo sapiens) was “inactive” each time.

`O=c1ccc2cnc3ccc(-c4ccc(N5CCOCC5)nc4)cc3c2n1-c1cccc(C(F)(F)F)c1` yielded a 50% cytotoxic concentration (CC50) at 96 h in data set [1] of 2910 nM. In addition, the IC50 with Enterovirus A71 stood at 2630 nM. Further, the inhibition result on mTORC1 (Homo sapiens) and on mTORC2 (Homo sapiens) was “Active” each time.

With `O=c1ccc2cnc3ccc(-c4ccc(F)nc4)cc3c2n1-c1cccc(C(F)(F)F)c1`, the cytotoxic concentration (CC50) at 96 h in data set [1] is 230 nM. For the same compound, the IC50 in the data set on Enterovirus A71 is 70 nM. The inhibition entry at mTORC1 (Homo sapiens) and on mTORC2 (Homo sapiens) was “Active” each time.

As a reminder, the solubility is the dissolved amount per volume that the medium holds. The compound `Nc1ccc(-c2ccc3ncc4ccc(=O)n(-c5cccc(C(F)(F)F)c5)c4c3c2)cn1` came in with a solubility in data set [3] of 1.29 µg/mL (≈ 2.98 µM). In addition, the half-maximal inhibitory concentration (IC50) with Enterovirus A71 came to 10 nM.

`Nc1cccc(Nc2ccc3ncc4ccc(=O)n(-c5cccc(C(F)(F)F)c5)c4c3c2)n1`: in data set [1], the 50% cytotoxic concentration (CC50) at 96 h was 5190 nM. The IC50 with Enterovirus A71 is 2470 nM. Further, the inhibition result on mTORC1 (Homo sapiens) and at mTORC2 (Homo sapiens) was “Active” each time.

In the case of `O=C(Cc1ccccc1)Nc1ccc(-c2ccc3ncc4ccc(=O)n(-c5cccc(C(F)(F)F)c5)c4c3c2)cn1`, in data set [1], the CC50 at 96 h is 740 nM. For the same compound, the concentration for half-maximal inhibition (IC50) with Enterovirus A71 turned out to be 560 nM. In addition, the inhibition entry at mTORC1 (Homo sapiens) and on mTORC2 (Homo sapiens) was “Active” throughout.
